Columns and labels:
morningglory [1] = experiment: Test A pre-/postemergence greenhouse test; format: in vivo, Ipomoea spp.; conditions: for Plant response rating, Morningglory: 0 to 100 scale where 0 is no effect and 100 is complete control; for Morningglory plant response rating: 0 to 100 scale
In short: (§1)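 Sowing in loam/sand; same-day pre (directed soil spray) and post (foliar, 1–2 leaf, 2–10 cm) treatment with surfactant-containing non-phytotoxic solvent formulation; ~10 days in greenhouse; eye-scored injury against untreated plants.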

redroot pigweed = experiment: Test A pre-/postemergence greenhouse test; format: in vivo, Amaranthus retroflexus; conditions: for Plant response rating, Pigweed: 0 to 100 scale where 0 is no effect and 100 is complete control; for Pigweed plant response rating: 0 to 100 scale
In short: as §1

corn [2] = experiment: Test A pre-/postemergence greenhouse test; format: in vivo, Zea mays; conditions: for Plant response rating, Corn: 0 to 100 scale where 0 is no effect and 100 is complete control; for Corn plant response rating: 0 to 100 scale
In short: as §1

Italian ryegrass = experiment: Test C pre-/postemergence test; format: in vivo, Lolium multiflorum; conditions: for Plant response rating, Ryegrass, Italian: 31 g ai/ha, scale 0 to 100 (0 no effect, 100 complete control)
In short: (§2)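 Compounds in a non-phytotoxic solvent with surfactant applied preemergence to seeded pots and, at the same time, postemergence to plants 2–18 cm tall (1- to 4-leaf stage). Paddy tests: pots flooded to 3 cm, compound applied into the water, depth held throughout.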

wheat = experiment: Test C pre-/postemergence test; format: in vivo, Triticum aestivum; conditions: for Plant response rating, Wheat: 31 g ai/ha, scale 0 to 100 (0 no effect, 100 complete control)
In short: as §2

wild oat = experiment: Test C pre-/postemergence test; format: in vivo, Avena fatua; conditions: for Plant response rating, Oat, Wild: 31 g ai/ha, scale 0 to 100 (0 no effect, 100 complete control)
In short: as §2

bermudagrass = experiment: Test C pre-/postemergence test; format: in vivo, Cynodon dactylon; conditions: for Plant response rating, Bermudagrass: 31 g ai/ha
In short: as §2

cocklebur = experiment: Test C pre-/postemergence test; format: in vivo, Xanthium strumarium; conditions: for Plant response rating, Cocklebur: 31 g ai/ha, scale 0 to 100 (0 no effect, 100 complete control)
In short: as §2

corn [3] = experiment: Test C pre-/postemergence test; format: in vivo, Zea mays; conditions: for Plant response rating, Corn: 31 g ai/ha, scale 0 to 100 (0 no effect, 100 complete control)
In short: as §2

giant foxtail = experiment: Test C pre-/postemergence test; format: in vivo, Setaria faberii; conditions: for Plant response rating, Foxtail, Giant: 31 g ai/ha, scale 0 to 100 (0 no effect, 100 complete control)
In short: as §2

johnsongrass = experiment: Test C pre-/postemergence test; format: in vivo, Sorghum halepense; conditions: for Plant response rating, Johnsongrass: 31 g ai/ha, scale 0 to 100 (0 no effect, 100 complete control)
In short: as §2

kochia = experiment: Test C pre-/postemergence test; format: in vivo, Kochia scoparia; conditions: for Plant response rating, Kochia: 31 g ai/ha, scale 0 to 100 (0 no effect, 100 complete control)
In short: as §2

morningglory [4] = experiment: Test C pre-/postemergence test; format: in vivo, Ipomoea coccinea; conditions: for Plant response rating, Morningglory: 31 g ai/ha, scale 0 to 100 (0 no effect, 100 complete control)
In short: as §2

eastern black nightshade = experiment: Test C pre-/postemergence test; format: in vivo, Solanum ptycanthum; conditions: for Plant response rating, Nightshade: 31 g ai/ha, scale 0 to 100 (0 no effect, 100 complete control)
In short: as §2

yellow nutsedge = experiment: Test C pre-/postemergence test; format: in vivo, Cyperus esculentus; conditions: for Plant response rating, Nutsedge, Yellow: 31 g ai/ha, scale 0 to 100 (0 no effect, 100 complete control)
In short: as §2

[5] = tested on: common (oilseed) sunflower; experiment: Test C pre-/postemergence test; format: in vivo, Helianthus annuus; conditions: for Plant response rating, Sunflower: 31 g ai/ha, scale 0 to 100 (0 no effect, 100 complete control)
In short: as §2

rice = experiment: Test C flooded paddy test; format: in vivo, Oryza sativa; conditions: Flood
In short: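 Test compounds are applied straight into paddy water held 3 cm above the soil surface, with that flood maintained for the whole test. After 13 to 15 days in the greenhouse, each species is scored visually relative to controls.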

[6] = Postemergence, 500 g ai/ha, 0 is no effect, 100 is complete control
[7] = Preemergence, 125 g ai/ha, 0 no effect, 100 complete control
[8] = 62 g ai/ha, Preemergence, scale 0 to 100
[9] = 125 g ai/ha, preemergence, scale 0 (no effect) to 100 (complete control)
[10] = preemergence, 250 g ai/ha, scale 0 (no effect) to 100 (complete control)
[11] = 62 g ai/ha, Preemergence, scale 0 to 100 (0 no effect, 100 complete control)
[12] = Preemergence, scale 0 to 100 (0 no effect, 100 complete control)
[13] = 62 g ai/ha, scale 0 to 100, 0 no effect, 100 complete control, 13 to 15 days
[14] = 250 g ai/ha, scale 0 to 100, 0 no effect, 100 complete control, 13 to 15 days

Cn1nc(C(F)(F)F)c(C(Cl)S(=O)(=O)c2cccc[n+]2[O-])c1OC(F)F (stereo not drawn) [Compound 51]
Plant response rating, Morningglory (morningglory [1]; Postemergence, 125 g ai/ha): 60 | Morningglory plant response rating (morningglory [1]; [6]): 60 | Morningglory plant response rating (morningglory [1]; [7]): 50 | Plant response rating, Morningglory (morningglory [1]; Preemergence, 500 g ai/ha): 70 | Plant response rating, Pigweed (redroot pigweed; Postemergence, 125 g ai/ha): 60 | Pigweed plant response rating (redroot pigweed; [6]): 70 | Pigweed plant response rating (redroot pigweed; [7]): 100 | Plant response rating, Pigweed (redroot pigweed; Preemergence, 500 g ai/ha): 100 | Plant response rating, Corn (corn [2]; Postemergence, 125 g ai/ha): 0 | Corn plant response rating (corn [2]; [6]): 20 | Corn plant response rating (corn [2]; [7]): 0 | Plant response rating, Corn (corn [2]; Preemergence, 500 g ai/ha): 0 | Ryegrass, Italian plant response rating (Italian ryegrass; [8]): 30 | Ryegrass, Italian plant response rating (Italian ryegrass; [9]): 80 | Plant response rating, Ryegrass, Italian (Italian ryegrass; Preemergence): 0 | Ryegrass, Italian plant response rating (Italian ryegrass; [10]): 80 | Wheat plant response rating (wheat; [8]): 10 | Wheat plant response rating (wheat; [9]): 20 | Plant response rating, Wheat (wheat; Preemergence): 5 | Oat, Wild plant response rating (wild oat; [8]): 0 | Oat, Wild plant response rating (wild oat; [9]): 10 | Plant response rating, Oat, Wild (wild oat; Preemergence): 0 | Oat, Wild plant response rating (wild oat; [10]): 50 | Bermudagrass plant response rating (bermudagrass; [11]): 100 | Bermudagrass plant response rating (bermudagrass; [9]): 100 | Plant response rating, Bermudagrass (bermudagrass; [12]): 90 | Bermudagrass plant response rating (bermudagrass; [10]): 100 | Cocklebur plant response rating (cocklebur; [8]): 0 | Cocklebur plant response rating (cocklebur; [9]): 0 | Plant response rating, Cocklebur (cocklebur; Preemergence): 0 | Cocklebur plant response rating (cocklebur; [10]): 0 | Corn plant response rating (corn [3]; [8]): 0 | Corn plant response rating (corn [3]; [9]): 50 | Plant response rating, Corn (corn [3]; Preemergence): 0 | Corn plant response rating (corn [3]; [10]): 50 | Foxtail, Giant plant response rating (giant foxtail; [8]): 50 | Foxtail, Giant plant response rating (giant foxtail; [9]): 90 | Plant response rating, Foxtail, Giant (giant foxtail; Preemergence): 10 | Foxtail, Giant plant response rating (giant foxtail; [10]): 100 | Johnsongrass plant response rating (johnsongrass; [8]): 95 | Johnsongrass plant response rating (johnsongrass; [9]): 98 | Plant response rating, Johnsongrass (johnsongrass; Preemergence): 75 | Johnsongrass plant response rating (johnsongrass; [10]): 100 | Kochia plant response rating (kochia; [8]): 100 | Kochia plant response rating (kochia; [9]): 100 | Plant response rating, Kochia (kochia; Preemergence): 65 | Kochia plant response rating (kochia; [10]): 100 | Morningglory plant response rating (morningglory [4]; [8]): 100 | Morningglory plant response rating (morningglory [4]; [9]): 100 | Plant response rating, Morningglory (morningglory [4]; Preemergence): 100 | Morningglory plant response rating (morningglory [4]; [10]): 100 | Nightshade plant response rating (eastern black nightshade; [9]): 85 | Plant response rating, Nightshade (eastern black nightshade; Preemergence): 0 | Nightshade plant response rating (eastern black nightshade; [10]): 100 | Nutsedge, Yellow plant response rating (yellow nutsedge; [8]): 40 | Nutsedge, Yellow plant response rating (yellow nutsedge; [9]): 40 | Plant response rating, Nutsedge, Yellow (yellow nutsedge; Preemergence): 0 | Nutsedge, Yellow plant response rating (yellow nutsedge; [10]): 100 | Sunflower plant response rating [5, 8]: 0 | Sunflower plant response rating [5, 9]: 0 | Plant response rating, Sunflower ([5]; Preemergence): 0 | Sunflower plant response rating [5, 10]: 0 | Plant response rating, Rice (rice; [13]): 25 | Plant response rating, Rice (rice; [14]): 55

Cn1nc(C(F)(F)F)c(C[S+]([O-])c2ccc(F)c[n+]2[O-])c1Cl (stereo not drawn) [Compound 54]
Plant response rating, Morningglory (morningglory [1]; Postemergence, 125 g ai/ha): 60 | Morningglory plant response rating (morningglory [1]; [6]): 90 | Morningglory plant response rating (morningglory [1]; [7]): 10 | Plant response rating, Morningglory (morningglory [1]; Preemergence, 500 g ai/ha): 80 | Plant response rating, Pigweed (redroot pigweed; Postemergence, 125 g ai/ha): 40 | Pigweed plant response rating (redroot pigweed; [6]): 60 | Pigweed plant response rating (redroot pigweed; [7]): 90 | Plant response rating, Pigweed (redroot pigweed; Preemergence, 500 g ai/ha): 100 | Plant response rating, Corn (corn [2]; Postemergence, 125 g ai/ha): 0 | Corn plant response rating (corn [2]; [6]): 60 | Corn plant response rating (corn [2]; [7]): 20 | Plant response rating, Corn (corn [2]; Preemergence, 500 g ai/ha): 70 | Ryegrass, Italian plant response rating (Italian ryegrass; [8]): 45 | Ryegrass, Italian plant response rating (Italian ryegrass; [9]): 70 | Plant response rating, Ryegrass, Italian (Italian ryegrass; Preemergence): 0 | Ryegrass, Italian plant response rating (Italian ryegrass; [10]): 98 | Wheat plant response rating (wheat; [9]): 40 | Plant response rating, Wheat (wheat; Preemergence): 0 | Oat, Wild plant response rating (wild oat; [8]): 10 | Oat, Wild plant response rating (wild oat; [9]): 30 | Plant response rating, Oat, Wild (wild oat; Preemergence): 0 | Oat, Wild plant response rating (wild oat; [10]): 40 | Bermudagrass plant response rating (bermudagrass; [11]): 100 | Bermudagrass plant response rating (bermudagrass; [9]): 100 | Plant response rating, Bermudagrass (bermudagrass; [12]): 98 | Bermudagrass plant response rating (bermudagrass; [10]): 100 | Cocklebur plant response rating (cocklebur; [8]): 0 | Cocklebur plant response rating (cocklebur; [9]): 0 | Plant response rating, Cocklebur (cocklebur; Preemergence): 0 | Cocklebur plant response rating (cocklebur; [10]): 0 | Corn plant response rating (corn [3]; [8]): 80 | Corn plant response rating (corn [3]; [9]): 85 | Plant response rating, Corn (corn [3]; Preemergence): 55 | Corn plant response rating (corn [3]; [10]): 98 | Foxtail, Giant plant response rating (giant foxtail; [8]): 98 | Foxtail, Giant plant response rating (giant foxtail; [9]): 100 | Plant response rating, Foxtail, Giant (giant foxtail; Preemergence): 85 | Foxtail, Giant plant response rating (giant foxtail; [10]): 100 | Johnsongrass plant response rating (johnsongrass; [8]): 95 | Johnsongrass plant response rating (johnsongrass; [9]): 100 | Plant response rating, Johnsongrass (johnsongrass; Preemergence): 90 | Johnsongrass plant response rating (johnsongrass; [10]): 100 | Kochia plant response rating (kochia; [8]): 100 | Kochia plant response rating (kochia; [9]): 100 | Plant response rating, Kochia (kochia; Preemergence): 50 | Kochia plant response rating (kochia; [10]): 100 | Morningglory plant response rating (morningglory [4]; [8]): 100 | Morningglory plant response rating (morningglory [4]; [9]): 100 | Plant response rating, Morningglory (morningglory [4]; Preemergence): 100 | Morningglory plant response rating (morningglory [4]; [10]): 100 | Nightshade plant response rating (eastern black nightshade; [8]): 50 | Nightshade plant response rating (eastern black nightshade; [9]): 85 | Plant response rating, Nightshade (eastern black nightshade; Preemergence): 0 | Nightshade plant response rating (eastern black nightshade; [10]): 85 | Nutsedge, Yellow plant response rating (yellow nutsedge; [8]): 65 | Nutsedge, Yellow plant response rating (yellow nutsedge; [9]): 100 | Plant response rating, Nutsedge, Yellow (yellow nutsedge; Preemergence): 0 | Nutsedge, Yellow plant response rating (yellow nutsedge; [10]): 100 | Sunflower plant response rating [5, 9]: 0 | Plant response rating, Sunflower ([5]; Preemergence): 0 | Sunflower plant response rating [5, 10]: 0 | Plant response rating, Rice (rice; 31 g ai/ha, scale 0 to 100 (0 no effect, 100 complete control)): 0 | Plant response rating, Rice (rice; [13]): 0 | Plant response rating, Rice (rice; 125 g ai/ha, scale 0 to 100, 0 no effect, 100 complete control, 13 to 15 days): 15 | Plant response rating, Rice (rice; [14]): 40

Source: patent US20100298141A1, “SUBSTITUTED PYRIDINE N-OXIDE HERBICIDES” (E. I. DU PONT DE NEMOURS AND COMPANY, priority 2007, published 2010)
